According to patent US5840732A, “Imidazopyridine or imidazopyrimidine compounds, their production and use” (Takeda Chemical Industries Ltd., priority 1994, dated 1998):

Tests used:
[1] = tested on: ICAM-1 expression in human umbilical cord vascular endothelial cells; assay: Inhibitory activity of adhesion molecule expression (ICAM-1, cell-ELISA); format: cell-based; conditions: TNFα 1 ng/ml, 37° C., 5 hours
Experimental: (§1) Inhibitory activity of adhesion molecule expression
(§2) Test method: To human umbilical cord vascular endothelial cells (purchased from Kurabo), cultured on gelatin-coated plates, compounds at various concentrations (test compounds) were added, followed by incubation at 37° C. for 15 minutes. Human tumor necrosis factor (TNFα, purchased from Genzyme) was then added to a final concentration of 1 ng/ml, followed by incubation at 37° C. for 3 hours for ELAM-1 expression or for 5 hours for ICAM-1 expression. After the reaction, cells were fixed with glutaraldehyde; the amounts of ELAM-1 and ICAM-1 expressed were determined by cell-ELISA. Anti-ELAM-1 antibody BBA-2 and an anti-ICAM-1 antibody BBA-4 were used as the first antibodies for the defection of ELAM-1 and ICAM-1, respectively, and horse radish peroxidase-labeled rabbit anti-mouse IgG antibody was used as the second antibody to determine the amount of adhesion molecules expressed on cells observed. The compound concentration at which 50% expression was expressed as the 50% inhibitory concentration (IC50), with the amount of expression in the absence of compounds as 100 and the amount of expression in the absence of TNFα as 0.

[2] = tested on: ELAM-1 expression in human umbilical cord vascular endothelial cells; assay: Inhibitory activity of adhesion molecule expression (ELAM-1, cell-ELISA); format: cell-based; conditions: TNFα 1 ng/ml, 37° C., 3 hours
Experimental: as §1, §2

[3] = tested on: Wistar fatty rats (rat model of hereditary obese diabetes mellitus); assay: Diabetic nephritis improving action in Wistar fatty rats; format: in vivo, rat (male Wistar fatty); conditions: 50 mg/kg/day oral, 12 weeks, n=6, mean ± standard deviation; for Urinary Albumin: control 35.69 ± 15.44 (for 2), 24.53 ± 7.19 (for 3); for Urinary Total Protein: control 145.19 ± 34.99 (for 2), 131.53 ± 22.81 (for 3), both p < 0.05 vs control; for Plasma Glucose: control 352.00 ± 36.09 (for 2), 368.83 ± 24.35 (for 3), 3: p < 0.05 vs control
Experimental: Diabetic nephritis improving action in Wistar fatty rats (rat model of hereditary obese diabetes mellitus)
Test method: Male Wistar fatty rats at 9 weeks of age were divided into two groups according to plasma glucose level, urinary total protein excretion and body weight: a control group and a test compound group (n=6). The test compound, in suspension in 0.5% methyl cellulose (Wako Pure Chemical) at 2 ml/kg, was orally administered by gavage once a day for 12 consecutive weeks. For the control group, only the 0.5% methyl cellulose suspension was orally administered in the same manner as the test compounds. At every 3 weeks, plasma glucose, urinary total protein and albumin excretion were quantitated by the enzyme method, the Lowry method (Journal of Biological Chemistry, Vol. 193, pp. 265-275 (1951)] and the method of Mohamed et al. [Journal of Immunology Methods, Vol. 74, pp. 17-22 (1984)], respectively.

SMILES | IC50 [1] [µM] | IC50 [2] [µM] | Urinary Albumin [3] [mg/day] | Urinary Total Protein [3] [mg/day] | Plasma Glucose [3] [mg/dL]
CCCC=C1SC(=O)N(CCCCSc2cccc3nccn23)C1=O [compound 2] | 3 | 2.9 | 20.49 ± 6.95 | 96.64 ± 18.31 | 333.67 ± 46.41
CCCC=C1SC(=O)N(CCCCCc2cccc3nccn23)C1=O [compound 3] | 4.2 | 5 | 22.34 ± 7.24 | 97.61 ± 16.26 | 253.17 ± 34.14
CCCC=C1SC(=O)N(CCSc2cccc3nccn23)C1=O [compound 5] | 3.5 | 5.3 |  |  | 
CCCCCCCCCC=C1SC(=O)N(CCCCSc2cccc3nccn23)C1=O [compound 6] | 6.3 | 7.3 |  |  | 
CCCC=C1SC(=O)N(CCCCc2cccc3nccn23)C1=O [compound 7] | 3.1 | 2.3 |  |  | 
CCCC=C1SC(=O)N(CCCCOc2cccc3nccn23)C1=O [compound 8] | 4.4 | 3.8 |  |  | 
CCCC=C1OC(=O)N(CCCCSc2cccc3nccn23)C1=O [compound 9] | 2.4 | 2.6 |  |  | 
CCC=C1SC(=O)N(CCCCSc2cccc3nccn23)C1=O [compound 10] | 2.4 | 2.3 |  |  | 
CC=C1SC(=O)N(CCCCSc2cccc3nccn23)C1=O [compound 11] | 2.9 | 1.9 |  |  | 
CCCC=C1SC(=O)N(CCCc2cccc3nccn23)C1=O [compound 12] | 4.9 | 4.4 |  |  | 
CCCC=C1SC(=O)N(CSc2cccc3nccn23)C1=O [compound 13] | 6.3 | 5.1 |  |  | 
CCCC=C1SC(=O)N(CCc2cccc3nccn23)C1=O [compound 14] | 6.1 | 5.1 |  |  | 
CCCC=C1SC(=O)N(Cc2cccc3nccn23)C1=O [compound 15] | 7 | 6.2 |  |  | 
O=C1SC(=CCCc2ccccc2)C(=O)N1CCCCSc1cccc2nccn12 [compound 19] | 3.9 | 3 |  |  | 
O=C1SC(=CCCCc2ccccc2)C(=O)N1CCCCSc1cccc2nccn12 [compound 21] | 4 | 3.3 |  |  | 
CCCC=C1SC(=O)N(CCCCSc2cccc3nc(C)cn23)C1=O [compound 23] | 7 | 3.6 |  |  | 
CCCC=C1SC(=O)N(CCCCSc2nccc3nccn23)C1=O [compound 25] | 8 | 4 |  |  | 
CCCC=C1SC(=O)N(CCCCOc2cccn3cc(-c4ccccc4)nc23)C1=O [compound 26] | 3.7 | 4.1 |  |  | 
CCCC=C1SC(=O)N(CCCCOc2cccn3cc(C(=O)OCC)nc23)C1=O [compound 27] | 6.5 | 5 |  |  | 

SMILES | IC50 [1] [µM] | IC50 [2] [µM] | Urinary Albumin [3] [mg/day] | Urinary Total Protein [3] [mg/day] | Plasma Glucose [3] [mg/dL]
O=C1OC(=CCCc2ccccc2)C(=O)N1CCCCOc1cccn2ccnc12 [compound 32] | 5.7 | 3.2 |  |  | 
O=C1OC(=CCCc2ccccc2)C(=O)N1CCCCSc1cccc2nccn12 [compound 33] | 6.3 | 2.8 |  |  | 
CCCC=C1SC(=O)N(CCCCOc2cccn3c(C(=O)C(F)(F)F)cnc23)C1=O [compound 34] | 6.1 | 5.2 |  |  | 
CCCC=C1SC(=O)N(CCCCSc2cccc3ncc(C(=O)C(F)(F)F)n23)C1=O [compound 35] | 4.6 | 3.4 |  |  | 
O=c1c(-c2ccccc2)c2n(c(=O)n1CCCCSc1cccc3nccn13)CCS2(=O)=O [compound 36] | 3.7 | 2.1 |  |  | 
O=C1SC(=CCCc2cccnc2)C(=O)N1CCCCSc1cccc2nccn12 [compound 38] | 3.7 | 3.4 |  |  | 
O=C1SC(=CCCc2cccnc2)C(=O)N1CCCCOc1cccn2ccnc12 [compound 39] | 2.4 | 3.3 |  |  | 
Cc1c2n(c(=O)n(CCCCSc3cccc4nccn34)c1=O)CCCS2(=O)=O [compound 40] | 1.8 | 1.1 |  |  | 
O=c1c(Cc2ccccc2)c2n(c(=O)n1CCCCSc1cccc3nccn13)CCCS2(=O)=O [compound 41] | 0.9 | 0.5 |  |  | 
CC(C)c1c2n(c(=O)n(CCCCSc3cccc4nccn34)c1=O)CCCS2(=O)=O [compound 42] | 1.5 | 1 |  |  | 
O=c1cc2n(c(=O)n1CCCCSc1cccc3nccn13)CCCS2(=O)=O [compound 43] | 3.5 | 2.2 |  |  | 
CCCC=C1SC(=O)N(CCCOc2cccn3ccnc23)C1=O [compound 47] | 4.2 | 3 |  |  | 
CCCC=C1SC(=O)N(CCCCOc2cccn3cc(C)nc23)C1=O [compound 48] | 6.4 | 4.6 |  |  | 
CCCC=C1SC(=O)N(CCCCSc2cccc3ncc(Br)n23)C1=O [compound 50] | 6.9 | 4.7 |  |  | 
O=c1c(-c2ccccc2)c2n(c(=O)n1CCCCSc1cccc3nccn13)CCC[S+]2[O-] (stereo not drawn) [compound 51] | 6.8 | 2.8 |  |  | 
O=C(NCCCn1c(=O)c(-c2ccccc2)c2n(c1=O)CCCS2(=O)=O)OCCc1cccc2nccn12 [compound 53] | 6.3 | 6.2 |  |  | 
CCCC=C1SC(=O)N(CCC(C)(C)CCSc2cccc3nccn23)C1=O [compound 54] | 5 | 6.1 |  |  | 
CCCC=C1SC(=O)N(CCC2(CCSc3cccc4nccn34)CCCC2)C1=O [compound 55] | 5.5 | 7.3 |  |  | 
CN(C)Cc1cnc2cccc(SCCCCn3c(=O)c(-c4ccccc4)c4n(c3=O)CCCS4(=O)=O)n12 [compound 56] | 5.7 | 3.9 |  |  | 

SMILES | IC50 [1] [µM] | IC50 [2] [µM] | Urinary Albumin [3] [mg/day] | Urinary Total Protein [3] [mg/day] | Plasma Glucose [3] [mg/dL]
CCCCCCC=C1SC(=O)N(CCCCSc2cccc3nccn23)C1=O [compound 57] | 7.1 | 7.9 |  |  | 
CCCCCCCC=C1SC(=O)N(CCCCSc2cccc3nccn23)C1=O [compound 60] | 9 | 9.2 |  |  | 
O=C1SC(=CCCCCc2ccccc2)C(=O)N1CCCCSc1cccc2nccn12 [compound 65] | 5.3 | 5 |  |  | 
O=C1SC(=CCCc2ccccc2)C(=O)N1CCCCOc1cccn2ccnc12 [compound 67] | 3.9 | 3.4 |  |  | 
CCC=C1SC(=O)N(CCCCOc2cccn3ccnc23)C1=O [compound 68] | 5 | 3.2 |  |  | 
CCCCC=C1SC(=O)N(CCCCOc2cccn3ccnc23)C1=O [compound 69] | 6.1 | 4 |  |  | 
CCCCCC=C1SC(=O)N(CCCCOc2cccn3ccnc23)C1=O [compound 70] | 6.9 | 5.3 |  |  | 
CCCCCCCC=C1SC(=O)N(CCCCOc2cccn3ccnc23)C1=O [compound 71] | 5.2 | 4.6 |  |  | 
CCCCCCCCCC=C1SC(=O)N(CCCCOc2cccn3ccnc23)C1=O [compound 72] | 5.6 | 6.4 |  |  | 
CCCCCC=C1OC(=O)N(CCCCOc2cccn3ccnc23)C1=O [compound 75] | 6.1 | 3.5 |  |  | 
CCC/C=C1\OC(=O)N(CCCCOc2cccn3c(C(=O)C(F)(F)F)cnc23)C1=O [compound 76] | 7.1 | 6.7 |  |  | 
CCC/C=C1/OC(=O)N(CCCCOc2cccn3c(C(=O)C(F)(F)F)cnc23)C1=O [compound 77] | 6 | 6.3 |  |  | 
O=C(CCCSc1cccc2nccn12)NCCCn1c(=O)c(-c2ccccc2)c2n(c1=O)CCCS2(=O)=O [compound 79] | 5.9 | 6.1 |  |  | 
COc1ccc(CCC=C2SC(=O)N(CCCCSc3cccc4nccn34)C2=O)cc1 [compound 80] | 4.1 | 4.6 |  |  | 
COc1ccccc1CCC=C1SC(=O)N(CCCCSc2cccc3nccn23)C1=O [compound 81] | 4.3 | 6.1 |  |  | 
O=C1SC(=CCCc2ccc(F)cc2)C(=O)N1CCCCSc1cccc2nccn12 [compound 82] | 3.6 | 4.3 |  |  | 
O=C1SC(=CCCc2ccccc2F)C(=O)N1CCCCSc1cccc2nccn12 [compound 83] | 3.8 | 3.7 |  |  | 
O=C1SC(=CCCc2ccccc2Cl)C(=O)N1CCCCSc1cccc2nccn12 [compound 84] | 3.6 | 4.1 |  |  | 
O=C1SC(=CCCc2ccc(Cl)cc2)C(=O)N1CCCCSc1cccc2nccn12 [compound 85] | 3.9 | 4.3 |  |  | 
